Data from US8492376B2, “Heteroaryl-cyclohexyl-tetraazabenzo[e]azulenes” (Hoffmann-La Roche Inc., priority 2010, dated 2013).
Counter-ions that a name gives are not always drawn.

Each molecule was assayed against T1, human V1a receptor (Homo sapiens, UniProt P37288) (assay: human V1a receptor binding studies (3H-Vasopressin, SPA beads)). Settings: membranes from HEK293 cells transiently transfected with human V1a receptor, Ki calculated from IC50 by the Cheng-Prussoff equation, read-out: pKi (hV1a) (converted).
T1 construct: expressed in transfected cells; host or cells: HEK293 cells, transiently transfected; cell membranes
T1 sequence (P37288 whole entry): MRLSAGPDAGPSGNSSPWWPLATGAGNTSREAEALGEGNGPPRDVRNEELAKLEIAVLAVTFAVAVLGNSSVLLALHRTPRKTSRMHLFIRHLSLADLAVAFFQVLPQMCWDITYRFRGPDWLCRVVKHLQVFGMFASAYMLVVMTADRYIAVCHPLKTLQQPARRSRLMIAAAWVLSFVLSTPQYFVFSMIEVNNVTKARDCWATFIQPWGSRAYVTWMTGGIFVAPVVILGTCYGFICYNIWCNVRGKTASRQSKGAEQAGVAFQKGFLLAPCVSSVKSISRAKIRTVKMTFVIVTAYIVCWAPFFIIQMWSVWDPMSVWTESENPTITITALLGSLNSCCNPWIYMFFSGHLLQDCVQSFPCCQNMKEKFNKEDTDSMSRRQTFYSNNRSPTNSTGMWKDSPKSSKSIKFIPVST
Method: The human V1a receptor was cloned by RT-PCR from total human liver RNA. The coding sequence was subcloned in an expression vector after sequencing to confirm the identity of the amplified sequence. […] Cell membranes were prepared from HEK293 cells transiently transfected with the expression vector and grown in 20 liter fermenters with the following protocol.
50 g of cells are resuspended in 30 ml freshly prepared ice cold Lyses buffer (50 mM HEPES, 1 mM EDTA, 10 mM magnesium dichloride adjusted to pH=7.4+complete cocktail of protease inhibitor (Roche Diagnostics)). Homogenized with Polytron for 1 min and solicited on ice for 2×2 minutes at 80% intensity (Vibrate solicitor). The preparation is centrifuged 20 min at 500 g at 4° C., the pellet is discarded and the supernatant centrifuged 1 hour at 43′000 g at 4° C. (19′000 rpm). The pellet is resuspended in 12.5 ml Lyses buffer+12.5 ml sucrose 20% and homogenized using a Polytron for 1-2 min. The protein concentration is determined by the Bradford method and aliquots are stored at −80° C. until use. For binding studies 60 mg Yttrium silicate SPA beads (Habersham®) are mixed with an aliquot of membrane in binding buffer (50 mM Tris, 120 mM sodium chloride, 5 mM potassium chloride, 2 mM calcium dichloride, 10 mM magnesium dichloride) for 15 minutes with mixing. 50 μl of bead/membrane mixture is then added to each well of a 96 well plate, followed by 50 μl of 4 nM 3H-Vasopressin (American Radiolabeled Chemicals). For total binding measurement 100 μl of binding buffer are added to the respective wells, for non-specific binding 100 μl of 8.4 mM cold vasopressin and for compound testing 100 μl of a serial dilution of each compound in 2% dimethyl sulfoxide. The plate is incubated 1 h at room temperature, centrifuged 1 min at 1000 g and counted on a Packard Top-Count. Non-specific binding counts are subtracted from each well and data is normalized to the maximum specific binding set at 100%. To calculate an IC50 the curve is fitted using a non-linear regression model (XLfit) and the Ki is calculated using the Cheng-Prussoff equation.
Molecule `Cc1cccc([C@H]2CC[C@H](c3nnc4n3-c3ccc(Cl)cc3CN(C(=O)OC(C)(C)C)C4)CC2)n1` [Example 4, trans-8-Chloro-1-[4-(6-methyl-pyridin-2-yl)-cyclohexyl]-4H,6H-2,3,5,10b-tetraaza-benzo[e]azulene-5-carboxylic acid tert-butyl ester] has a Ki of 0.2 nM.
For `Fc1cccnc1[C@H]1CC[C@H](c2nnc3n2-c2ccc(Cl)cc2CN(C2CCC2)C3)CC1` [Example 33, trans-8-Chloro-5-cyclobutyl-[4-(3-fluoro-pyridin-2-yl)-cyclohexyl]-5,6-dihydro-4H-2,3,5,10b-tetraaza-benzo[e]azulene], the Ki was 0.302 nM.
`Cc1cnc(C)c([C@H]2CC[C@H](c3nnc4n3-c3ccc(Cl)cc3CN(C)C4)CC2)n1` [Example 80, trans-8-Chloro-1-[4-(3,6-dimethyl-pyrazin-2-yl)-cyclohexyl]-5-methyl-5,6-dihydro-4H-2,3,5,10b-tetraaza-benzo[e]azulene] showed a Ki of 7.24 nM.
Molecule `CC(C)(C)OC(=O)N1Cc2cc(Cl)ccc2-n2c(nnc2[C@H]2CC[C@H](c3ccc(F)cn3)CC2)C1` [Example 22, trans-8-Chloro-1-[4-(5-fluoro-pyridin-2-yl)-cyclohexyl]-4H,6H-2,3,5,10b-tetraaza-benzo[e]azulene-5-carboxylic acid tert-butyl ester] has a Ki of 0.302 nM.
In the case of `Fc1cnc([C@H]2CC[C@H](c3nnc4n3-c3ccc(Cl)cc3CNC4)CC2)c(F)c1` [Example 86, trans-8-Chloro-1-[4-(3,5-difluoro-pyridin-2-yl)-cyclohexyl]-5,6-dihydro-4H-2,3,5,10b-tetraaza-benzo[e]azulene], the Ki is reported as 9.33 nM.
With `CN1Cc2cc(Cl)ccc2-n2c(nnc2[C@H]2CC[C@H](c3cccnc3Cl)CC2)C1` [Example 53, trans-8-Chloro-1-[4-(2-chloro-pyridin-3-yl)-cyclohexyl]-5-methyl-5,6-dihydro-4H-2,3,5,10b-tetraaza-benzo[e]azulene] the Ki was 13.8 nM.
`CC(C)(C)OC(=O)N1Cc2cc(Cl)ccc2-n2c(nnc2[C@H]2CC[C@@H](c3ncccn3)CC2)C1` [Example 58, cis-8-Chloro-1-(4-pyrimidin-2-yl-cyclohexyl)-4H,6H-2,3,5,10b-tetraaza-benzo[e]azulene-5-carboxylic acid tert-butyl ester] showed a Ki of 20.4 nM.
Molecule `CC(C)(C)OC(=O)N1Cc2cc(Cl)ccc2-n2c(nnc2[C@H]2CC[C@H](c3cnccn3)CC2)C1` [Example 69, trans-8-Chloro-1-(4-pyrazin-2-yl-cyclohexyl)-4H,6H-2,3,5,10b-tetraaza-benzo[e]azulene-5-carboxylic acid tert-butyl ester] has a Ki of 0.603 nM.
`Cc1cc(C)nc([C@H]2CC[C@H](c3nnc4n3-c3ccc(Cl)cc3CNC4)CC2)n1` [Example 64, trans-8-Chloro-1-[4-(4,6-dimethyl-pyrimidin-2-yl)-cyclohexyl]-5,6-dihydro-4H-2,3,5,10b-tetraaza-benzo[e]azulene hydrochloride] showed a Ki of 18.6 nM.
`Clc1ccc2c(c1)CNCc1nnc([C@H]3CC[C@H](c4ncccc4Cl)CC3)n1-2` [Example 83, trans-8-Chloro-1-[4-(3-chloro-pyridin-2-yl)-cyclohexyl]-5,6-dihydro-4H-2,3,5,10b-tetraaza-benzo[e]azulene] gave a Ki of 7.24 nM.
In the case of `CCN1Cc2cc(Cl)ccc2-n2c(nnc2[C@H]2CC[C@H](c3ncccc3F)CC2)C1` [Example 31, trans-8-Chloro-5-ethyl-[4-(3-fluoro-pyridin-2-yl)-cyclohexyl]-5,6-dihydro-4H-2,3,5,10b-tetraaza-benzo[e]azulene], the Ki is reported as 0.562 nM.
In the case of `CCc1cccc([C@H]2CC[C@H](c3nnc4n3-c3ccc(Cl)cc3CNC4)CC2)n1` [Example 8, trans-8-Chloro-1-[4-(6-ethyl-pyridin-2-yl)-cyclohexyl]-5,6-dihydro-4H-2,3,5,10b-tetraaza-benzo[e]azulene], the Ki is reported as 44.7 nM.
`Cc1cc(C)nc([C@H]2CC[C@H](c3nnc4n3-c3ccc(Cl)cc3CN(C(=O)OC(C)(C)C)C4)CC2)n1` [Example 63, trans-8-Chloro-1-[4-(4,6-dimethyl-pyrimidin-2-yl)-cyclohexyl]-4H,6H-2,3,5,10b-tetraaza-benzo[e]azulene-5-carboxylic acid tert-butyl ester] was tested, and the Ki was 0.398 nM.
Work on `CN1Cc2cc(Cl)ccc2-n2c(nnc2[C@H]2CC[C@H](c3ncccn3)CC2)C1` [Example 60, trans-8-Chloro-5-methyl-1-(4-pyrimidin-2-yl-cyclohexyl)-5,6-dihydro-4H-2,3,5,10b-tetraaza-benzo[e]azulene] yielded a Ki of 2.19 nM.
`O=C(CO)N1Cc2cc(Cl)ccc2-n2c(nnc2[C@H]2CC[C@H](c3ncccc3F)CC2)C1` [Example 38, trans-1-{8-Chloro-1-[4-(3-fluoro-pyridin-2-yl)-cyclohexyl]-4H,6H-2,3,5,10b-tetraaza-benzo[e]azulen-5-yl}-2-hydroxy-ethanone] was tested, and the Ki was 2.29 nM.
`Clc1ccc2c(c1)CNCc1nnc([C@H]3CC[C@H](c4cc(Cl)ccn4)CC3)n1-2` [Example 26, trans-8-Chloro-1-[4-(4-chloro-pyridin-2-yl)-cyclohexyl]-5,6-dihydro-4H-2,3,5,10b-tetraaza-benzo[e]azulene] showed a Ki of 1 nM.
Work on `Cc1cncc([C@H]2CC[C@H](c3nnc4n3-c3ccc(Cl)cc3CN(C)C4)CC2)n1` [Example 74, trans-8-Chloro-5-methyl-1-[4-(6-methyl-pyrazin-2-yl)-cyclohexyl]-5,6-dihydro-4H-2,3,5,10b-tetraaza-benzo[e]azulene] yielded a Ki of 11.2 nM.
Molecule `Fc1ncccc1[C@H]1CC[C@H](c2nnc3n2-c2ccc(Cl)cc2CNC3)CC1` [Example 55, trans-8-Chloro-1-[4-(2-fluoro-pyridin-3-yl)-cyclohexyl]-5,6-dihydro-4H-2,3,5,10b-tetraaza-benzo[e]azulene] has a Ki of 69.2 nM.
`CC(C)(C)OC(=O)N1Cc2cc(Cl)ccc2-n2c(nnc2[C@H]2CC[C@@H](c3ncccc3F)CC2)C1` [Example 45, cis-8-Chloro-1-[4-(3-fluoro-pyridin-2-yl)-cyclohexyl]-4H,6H-2,3,5,10b-tetraaza-benzo[e]azulene-5-carboxylic acid tert-butyl ester] gave a Ki of 5.01 nM.
In the case of `Cc1cccc([C@H]2CC[C@H](c3nnc4n3-c3ccc(Cl)cc3CN(C)C4)CC2)n1` [Example 6, trans-8-Chloro-1-[4-(6-methyl-pyridin-2-yl)-cyclohexyl]-5-methyl-5,6-dihydro-4H-2,3,5,10b-tetraaza-benzo[e]azulene], the Ki is reported as 0.891 nM.
For `CN1Cc2cc(F)ccc2-n2c(nnc2[C@H]2CC[C@H](c3ncccc3F)CC2)C1` [Example 44, trans-8-Fluoro-[4-(3-fluoro-pyridin-2-yl)-cyclohexyl]-5-methyl-5,6-dihydro-4H-2,3,5,10b-tetraaza-benzo[e]azulene], the Ki was 8.91 nM.
`Fc1ccc2c(c1)CNCc1nnc([C@H]3CC[C@H](c4ncccc4F)CC3)n1-2` [Example 43, trans-8-Fluoro-[4-(3-fluoro-pyridin-2-yl)-cyclohexyl]-5,6-dihydro-4H-2,3,5,10b-tetraaza-benzo[e]azulene] gave a Ki of 24.5 nM.
With `Cc1cnc(C)c([C@H]2CC[C@H](c3nnc4n3-c3ccc(Cl)cc3CN(C(=O)OC(C)(C)C)C4)CC2)n1` [Example 78, trans-8-Chloro-1-[4-(3,6-dimethyl-pyrazin-2-yl)-cyclohexyl]-4H,6H-2,3,5,10b-tetraaza-benzo[e]azulene-5-carboxylic acid tert-butyl ester] the Ki was 0.794 nM.
For `Clc1ccc2c(c1)CNCc1nnc([C@H]3CC[C@@H](c4ncccn4)CC3)n1-2` [Example 61, cis-8-Chloro-1-(4-pyrimidin-2-yl-cyclohexyl)-5,6-dihydro-4H-2,3,5,10b-tetraaza-benzo[e]azulene], the Ki was 427 nM.
`CC(C)(C)OC(=O)N1Cc2cc(Cl)ccc2-n2c(nnc2[C@H]2CC[C@H](c3cccc(Cl)n3)CC2)C1` [Example 16, trans-8-Chloro-1-[4-(6-chloro-pyridin-2-yl)-cyclohexyl]-4H,6H-2,3,5,10b-tetraaza-benzoazulene-5-carboxylic acid tert-butyl ester] gave a Ki of 0.302 nM.
With `CC(C)(C)OC(=O)N1Cc2cc(F)ccc2-n2c(nnc2[C@H]2CC[C@H](c3ncccc3F)CC2)C1` [Example 42, trans-8-Fluoro-[4-(3-fluoro-pyridin-2-yl)-cyclohexyl]-4H,6H-2,3,5,10b-tetraaza-benzo[e]azulene-5-carboxylic acid tert-butyl ester] the Ki was 0.525 nM.
`COCCN1Cc2cc(Cl)ccc2-n2c(nnc2[C@H]2CC[C@H](c3ncccc3F)CC2)C1` [Example 35, trans-8-Chloro-1-[4-(3-fluoro-pyridin-2-yl)-cyclohexyl]-5-(2-methoxy-ethyl)-5,6-dihydro-4H-2,3,5,10b-tetraaza-benzo[e]azulene] showed a Ki of 0.977 nM.
